Experimental data reported in publication PMC11971462, “Generation and validation of a novel multitarget small molecule in glioblastoma” (Cell Death & Disease, 2025).

System: GNS166 cells
Experiment: Label-free proteomics differential expression
Format: cell-based, human
Experimental: Proteomic studies were performed by the Proteomics Facility of the CIC bioGUNE by label-free relative quantification on nLC MS/MS. […] In both approaches, the top 20 enriched terms were plotted and the pathways were clustered using divisive hierarchical clustering based on pairwise Jaccard distances.

In the case of `C#CCN(Cc1cc2cc(OCCCN3CCCCC3)ccc2n1S(=O)(=O)c1ccccc1)C(=O)CCCCCCC(=O)NO` [DDI], the “Direction TENS3_HUMAN” value (protein Q68CZ2) is reported as “Down”, the “LogFC TENS3_HUMAN” value (protein Q68CZ2) is reported as -3.364 and the “LogFC LARP4_HUMAN” value (protein Q71RC2 GN=LARP4) is reported as 0.7689. For the same molecule, the “LogFC PEG10_HUMAN” value (protein Q86TG7 GN=PEG10) was 3.16, the “LogFC SETD3_HUMAN” value (protein Q86TU7 GN=SETD3) was 0.5021 and the “Direction ACOT1_HUMAN” value (protein Q86TX2) was “Down”. For the same molecule, the “LogFC ACOT1_HUMAN” value (protein Q86TX2) was -1.83, the “LogFC PABP2_HUMAN” value (protein Q86U42 GN=PABPN1) was -1.1218 and the “Direction PB1_HUMAN” value (protein Q86U86) was “Down”. The “LogFC PB1_HUMAN” value (protein Q86U86) was -2.078, the “Direction PHLB1_HUMAN” value (protein Q86UU1) was “Down” and the “LogFC PHLB1_HUMAN” value (protein Q86UU1) was -2.257. The “Direction DTX2_HUMAN” value (protein Q86UW9) was “Down”, the “LogFC DTX2_HUMAN” value (protein Q86UW9) was -1.305 and the “LogFC LUZP1_HUMAN” value (protein Q86V48 GN=LUZP1) was 0.5884. The “LogFC THOC4_HUMAN” value (protein Q86V81 GN=ALYREF) was -0.9542, the “Direction IQGA3_HUMAN” value (protein Q86VI3) was “Down” and the “LogFC IQGA3_HUMAN” value (protein Q86VI3) was -2.742. The “Direction MET16_HUMAN” value (protein Q86W50) was “Down”, the “LogFC MET16_HUMAN” value (protein Q86W50) was -1.7557 and the “LogFC CCD25_HUMAN” value (protein Q86WR0 GN=CCDC25) was 2.202. The “LogFC NIT1_HUMAN” value (protein Q86X76 GN=NIT1) was 0.9607, the “Direction CNDG2_HUMAN” value (protein Q86XI2) was “Down” and the “LogFC CNDG2_HUMAN” value (protein Q86XI2) was -2.11. The “Direction ANKL2_HUMAN” value (protein Q86XL3) was “Down”, the “LogFC ANKL2_HUMAN” value (protein Q86XL3) was -0.7885 and the “LogFC DDX42_HUMAN” value (protein Q86XP3 GN=DDX42) was -0.6019. The “Direction VRK2_HUMAN” value (protein Q86Y07) was “Down”, the “LogFC VRK2_HUMAN” value (protein Q86Y07) was -1.564 and the “LogFC RAB43_HUMAN” value (protein Q86YS6 GN=RAB43) was -1.528. For the same molecule, the “Direction RFT1_HUMAN” value (protein Q96AA3) was “Down”, the “LogFC RFT1_HUMAN” value (protein Q96AA3) was -0.9928 and the “Direction TTC17_HUMAN” value (protein Q96AE7) was “Down”. The “LogFC TTC17_HUMAN” value (protein Q96AE7) was -1.296, the “LogFC PBIP1_HUMAN” value (protein Q96AQ6 GN=PBXIP1) was 1.536 and the “LogFC SARAF_HUMAN” value (protein Q96BY9 GN=SARAF) was 2.225. The “LogFC ACSF2_HUMAN” value (protein Q96CM8 GN=ACSF2) was 1.4396, the “LogFC GCP3_HUMAN” value (protein Q96CW5 GN=TUBGCP3) was -1.184 and the “LogFC RMXL1_HUMAN” value (protein Q96E39 GN=RBMXL1) was 1.251. The “LogFC SGTB_HUMAN” value (protein Q96EQ0 GN=SGTB) was 0.9619, the “Direction WDR34_HUMAN” value (protein Q96EX3) was “Down” and the “LogFC WDR34_HUMAN” value (protein Q96EX3) was -2.769. The “LogFC DYL2_HUMAN” value (protein Q96FJ2 GN=DYNLL2) was 1.408, the “Direction CERS2_HUMAN” value (protein Q96G23) was “Down” and the “LogFC CERS2_HUMAN” value (protein Q96G23) was -1.352. For the same molecule, the “Direction AURKB_HUMAN” value (protein Q96GD4) was “Down”, the “LogFC AURKB_HUMAN” value (protein Q96GD4) was -0.8936 and the “Direction TOE1_HUMAN” value (protein Q96GM8) was “Down”. The “LogFC TOE1_HUMAN” value (protein Q96GM8) was -1.175, the “Direction ITCH_HUMAN” value (protein Q96J02) was “Down” and the “LogFC ITCH_HUMAN” value (protein Q96J02) was -0.7634. The “Direction TOPK_HUMAN” value (protein Q96KB5) was “Down”, the “LogFC TOPK_HUMAN” value (protein Q96KB5) was -2.0632 and the “Direction EHMT2_HUMAN” value (protein Q96KQ7) was “Down”. The “LogFC EHMT2_HUMAN” value (protein Q96KQ7) was -1.8, the “Direction EP400_HUMAN” value (protein Q96L91) was “Down” and the “LogFC EP400_HUMAN” value (protein Q96L91) was -2.0331. The “Direction TRI47_HUMAN” value (protein Q96LD4) was “Down”, the “LogFC TRI47_HUMAN” value (protein Q96LD4) was -1.137 and the “LogFC FXL18_HUMAN” value (protein Q96ME1 GN=FBXL18) was 0.7929. For the same molecule, the “LogFC DCBD2_HUMAN” value (protein Q96PD2 GN=DCBLD2) was -0.7605, the “LogFC NED4L_HUMAN” value (protein Q96PU5 GN=NEDD4L) was 1.365 and the “LogFC S38A2_HUMAN” value (protein Q96QD8 GN=SLC38A2) was 0.9305. For the same molecule, the “Direction MCCA_HUMAN” value (protein Q96RQ3) was “Down”, the “LogFC MCCA_HUMAN” value (protein Q96RQ3) was -0.7659 and the “Direction INT14_HUMAN” value (protein Q96SY0) was “Down”. The “LogFC INT14_HUMAN” value (protein Q96SY0) was -0.8896, the “Direction RSF1_HUMAN” value (protein Q96T23) was “Down” and the “LogFC RSF1_HUMAN” value (protein Q96T23) was -2.084. For the same molecule, the “Direction UHRF1_HUMAN” value (protein Q96T88) was “Down”, the “LogFC UHRF1_HUMAN” value (protein Q96T88) was -2.206 and the “Direction VIGLN_HUMAN” value (protein Q00341) was “Down”. For the same molecule, the “LogFC VIGLN_HUMAN” value (protein Q00341) was -1.004, the “Direction PAR14_HUMAN” value (protein Q460N5) was “Down” and the “LogFC PAR14_HUMAN” value (protein Q460N5) was -1.711. For the same molecule, the “LogFC CDK5_HUMAN” value (protein Q00535 GN=CDK5) was 1.129, the “LogFC M17L2_HUMAN” value (protein Q567V2 GN=MPV17L2) was 1.68 and the “LogFC PURA_HUMAN” value (protein Q00577 GN=PURA) was 0.4477. For the same molecule, the “LogFC SFT2C_HUMAN” value (protein Q587I9 GN=SFT2D3) was -1.885, the “LogFC ACD11_HUMAN” value (protein Q709F0 GN=ACAD11) was -0.7894 and the “LogFC CAP1_HUMAN” value (protein Q01518 GN=CAP1) was 0.6335. For the same molecule, the “Direction OTUD4_HUMAN” value (protein Q01804) was “Down”, the “LogFC OTUD4_HUMAN” value (protein Q01804) was -1.044 and the “Direction BDH_HUMAN” value (protein Q02338) was “Down”. For the same molecule, the “LogFC BDH_HUMAN” value (protein Q02338) was -0.9278, the “LogFC DSC2_HUMAN” value (protein Q02487 GN=DSC2) was 2.478 and the “LogFC AKA12_HUMAN” value (protein Q02952 GN=AKAP12) was 2.896. The “LogFC KIME_HUMAN” value (protein Q03426 GN=MVK) was -0.3731, the “Direction ERCC6_HUMAN” value (protein Q03468) was “Down” and the “LogFC ERCC6_HUMAN” value (protein Q03468) was -0.8508. For the same molecule, the “Direction TAP1_HUMAN” value (protein Q03518) was “Down”, the “LogFC TAP1_HUMAN” value (protein Q03518) was -0.8528 and the “Direction TAP2_HUMAN” value (protein Q03519) was “Down”. The “LogFC TAP2_HUMAN” value (protein Q03519) was -0.8847, the “Direction GLGB_HUMAN” value (protein Q04446) was “Down” and the “LogFC GLGB_HUMAN” value (protein Q04446) was -0.6914. The “Direction SRS11_HUMAN” value (protein Q05519) was “Down”, the “LogFC SRS11_HUMAN” value (protein Q05519) was -0.4029 and the “Direction FOLC_HUMAN” value (protein Q05932) was “Down”. The “LogFC FOLC_HUMAN” value (protein Q05932) was -1.856, the “LogFC PUR1_HUMAN” value (protein Q06203 GN=PPAT) was 0.9093 and the “LogFC GFPT1_HUMAN” value (protein Q06210 GN=GFPT1) was -0.4508. For the same molecule, the “LogFC PRDX1_HUMAN” value (protein Q06830 GN=PRDX1) was 1.081, the “Direction B2CL1_HUMAN” value (protein Q07817) was “Down” and the “LogFC B2CL1_HUMAN” value (protein Q07817) was -1.289. For the same molecule, the “Direction RHG01_HUMAN” value (protein Q07960) was “Down”, the “LogFC RHG01_HUMAN” value (protein Q07960) was -0.6872 and the “Direction AHNK_HUMAN” value (protein Q09666) was “Down”. For the same molecule, the “LogFC AHNK_HUMAN” value (protein Q09666) was -0.5648, the “Direction CPSF1_HUMAN” value (protein Q10570) was “Down” and the “LogFC CPSF1_HUMAN” value (protein Q10570) was -0.5217. For the same molecule, the “LogFC SCRN1_HUMAN” value (protein Q12765 GN=SCRN1) was -0.7259, the “Direction CDC20_HUMAN” value (protein Q12834) was “Down” and the “LogFC CDC20_HUMAN” value (protein Q12834) was -2.397.
